Results published in ChEMBL document CHEMBL3507680, “University of Dundee, Gates Library screen for HepG2 cell viability”.

Assay: Human HepG2 cell viability assay in 384 well format
Type: toxicity, cell-based
Set-up: dose 125 nL, time 70.5 hour; concentration not given beside the values
Conditions: HepG2 cells, read-out: Inhibition

In order of falling cytotoxicity at 70.5 h:
1. CN(C)C(=O)c1ccc(NCCNc2ccc3ccccc3n2)nc1  45.4%
2. Cc1cccc(C)c1OCCNC(=O)NC(C)c1nncn1C (centres undefined)  41.6%
3. Cc1nc(CN(C)C2CCN(Cc3cccc4c3OCCO4)C2)no1 (centres undefined)  28.1%
4. CNC(=O)C1CN(c2cc(C)ncn2)CCN1Cc1ccccc1 (centres undefined)  21.6%
5. COc1cccc(CNCc2cccnc2-n2cccn2)c1OC  19.6%
6. CCCNC(=O)C1CCCN(Cc2csc(C(C)(C)C)n2)C1 (centres undefined)  17.8%
7. c1ccc(-c2nc(CN3CCCC(Cn4cncn4)C3)co2)cc1 (centres undefined)  17.2%
8. COc1ccccc1C(C(=O)O)N1CCCN(C2CCCC2)CC1 (centres undefined)  16.1%
9. CCCc1nc(N2CCCCC2)c2c(n1)c(C)nn2CC  15.4%
10. Cc1cc(C(=O)N2CCCC3(CCCN3Cc3cccnc3)C2)[nH]n1 (centres undefined)  12.8%
11. O=C(Cn1ccc2cc(Br)ccc21)NC[C@@H]1CCCN2CCCC[C@H]12  9.59%
12. CC(C)Oc1ncc(C(=O)N2CCC(NC(=O)C3CC3)CC2)cc1Cl  7%
13. N#CC(NC(=O)CCCOc1cccnc1)c1ccc(F)cc1F (centres undefined)  6.82%
14. CN(Cc1nc(C(C)(C)C)no1)C1CCS(=O)(=O)C1 (centres undefined)  6.01%
15. O=C(C1CC1)N1CCC2(CCCN2Cc2ccc(F)cc2)CC1  5.51%
16. CCc1cc(N2CCC(NCCc3ccccc3F)CC2)nc(C)n1  5.19%
17. CNC(=O)N1CCC2(CC1)C(=O)N(C)c1c(F)cccc12  4.07%
18. O=C(c1ccc(=O)[nH]c1)N1CCC(Oc2cccc(C(F)(F)F)c2)CC1  3.69%
19. Cc1ccccc1CN(C)C(=O)c1ccoc1  3.46%
20. CC(Cn1cccn1)NC(=O)NCCN1CCCCCC1=O (centres undefined)  2.55%
21. CCC1CN(CC(=O)NCCC#N)CCO1 (centres undefined)  2.5%
22. O=C(c1ccc(-n2cnnc2)cc1Cl)N1CCCC2(CCNC2)C1 (centres undefined)  2.05%
23. CC(C)CC(=O)N1CC(=O)c2sc(Nc3ccc(F)cc3)nc2C1  1.95%
24. COc1ccc(CNc2cnn(C)c(=O)c2Cl)cc1  1.82%
25. Cc1ccc2c(c1)C1(CCNCC1)CC2N1CCOCC1 (centres undefined)  1.67%
26. Cc1cc(C(=O)Nc2ccn(CCCN3CCCC3)n2)no1  1.38%
27. CC(=O)N1[C@H](Cn2cncn2)C[C@@H]2CN(c3ncccn3)CC[C@@H]21  1.33%
28. CCCNC(=O)Cn1cc(-c2ccccc2)cn1  1.15%
29. O=C(c1ccc2c(c1)COC2)N1CCCN(Cc2cscn2)CC1  1.09%
30. CNC(=O)C1CN(Cc2ccc(C#N)cc2F)c2ccccc2O1 (centres undefined)  1%
31. N#Cc1ccc(OC[C@]23COC[C@H]2CN(Cc2ccoc2)C3)nc1  0.658%
32. Cc1nn(C)c(C)c1S(=O)(=O)NCC1CCN(c2ccccn2)CC1  0.358%
33. COC(C)c1nc(CN2CCNCC2)cs1 (centres undefined)  0.111%
34. CC(=O)N[C@@H]1CN(C(=O)c2ccc[nH]2)C[C@H]1c1ccc(C)o1  0.0626%
35. COc1ccc(NC(=O)NC(C)c2nc[nH]n2)cc1 (centres undefined)  -0.0192%
36. Cc1cc(C)nc(C2CCCN2c2ccnc(C)n2)n1 (centres undefined)  -0.201%
37. CC1=NOC(C(=O)N(C)CCCn2nc(C)cc2C)C1 (centres undefined)  -0.336%
38. Cn1cncc1-c1nnc([C@H]2CCN(Cc3ccc(F)c(F)c3)C2)o1  -0.644%
39. Cc1cnc(CNC(=O)c2cc3c(s2)CCN3S(C)(=O)=O)cn1  -0.66%
40. COCC1c2c(cnn2C)CCN1C(=O)c1cc(C)on1 (centres undefined)  -0.669%
41. COCCN1CCO[C@@H]2CN(Cc3ccccc3OC)C[C@@H]2C1  -0.773%
42. CNS(=O)(=O)CCNC(=O)[C@@]12CNC[C@@H]1CN(C1CCCC1)C2  -0.951%
43. CCCN1CCC2(Cc3ccccc3NC2=O)C1 (centres undefined)  -0.983%
44. CN1CCN(Cc2cnc3n2CCN(Cc2cccnc2)CC3)CC1  -1.41%
45. O=C(C1CCCC1)N1CCC2(CC1)OCCO2  -1.7%
46. Cc1nc(C)n(CC2CCCN2Cc2cn3cc(Cl)ccc3n2)n1 (centres undefined)  -1.76%
47. CCOc1ccc(C(=O)N(Cc2cnn(C)c2)C(C)C)cc1  -1.86%
48. O=C(NCCCc1nc(=O)[nH][nH]1)Nc1cccc(F)c1  -1.96%
49. CCN(C(=O)COC)C(c1cccnc1)c1ccc2c(c1)CCO2 (centres undefined)  -2.44%
50. CN1CCCC(c2cccc(-c3cccc(C(F)(F)F)c3)n2)C1 (centres undefined)  -2.8%
51. CC1c2ncc(Cn3cccn3)n2CCN1Cc1ccc(F)cc1 (centres undefined)  -2.85%
52. O=C1CC[C@]2(CC[C@@H](NCc3ccoc3)CC2)N1  -2.86%
53. Cc1cc(C(=O)NC2CCCc3c2cnn3-c2cccc(C)c2C)[nH]n1 (centres undefined)  -3.11%
54. CCS(=O)(=O)N1CCC2(CC(=O)N(c3cncnc3)C2)C1 (centres undefined)  -3.21%
55. Cc1nc(N2CCC(CC(=O)N3CCCC3)CC2)c2cnn(C)c2n1  -3.28%
56. CC(=O)N1CCC(NC(=O)c2ccccc2-n2cnnn2)CC1  -3.54%
57. CNC(=O)N(C)CC1(c2ccc(Br)cc2)CC1  -3.73%
58. CCOc1ccc(C(=O)Nc2c(C)nc3ccc(Cl)cn3c2=O)cc1  -3.81%
59. Cc1ncc(CC(=O)N2CCCCC2CCN2CCCC2)c(=O)[nH]1 (centres undefined)  -3.87%
60. Cc1[nH]c(=O)sc1S(=O)(=O)N1CCCC1C(=O)NCc1ccsc1 (centres undefined)  -4.24%
61. Cc1ccc(C(=O)NCCC2CN(C3CCCC3)CCO2)c(C)c1 (centres undefined)  -4.25%
62. CN1CCC(CCc2ccnc(Nc3cnccn3)c2)CC1  -4.49%
63. CCC(=O)N1CCC2(CC1)CC(Oc1ccccc1)CO2 (centres undefined)  -4.49%
64. O=c1[nH]c(-c2ccccn2)nc2c1CCN(Cc1cccc(O)c1)C2  -4.95%
65. COc1ccccc1C(O)CNC(=O)Nc1ccccn1 (centres undefined)  -5.18%
66. Cc1cc(NCCS(C)(=O)=O)nc2cc3c(cc12)CCC3  -5.3%
67. O=C(c1cc(C2CC2)[nH]n1)N1CCCN(c2nccs2)CC1  -5.32%
68. O=c1ncn(-c2ccccc2F)c2ncccc12  -5.32%
69. C/C=C(\C)CN1C[C@H](c2cccc(OC)c2)[C@@H](N)C1  -5.71%
70. Cc1ccccc1C(=O)NCC(O)c1ccc(F)c(F)c1 (centres undefined)  -5.82%
71. Cc1nn2c(N3CCC(O)C3)cc(-c3ccccc3)nc2c1C (centres undefined)  -5.83%
72. CC(C)OC(=O)[C@@H]1CCN(C(=O)c2ccccn2)[C@@H]1c1ccc(F)cc1  -6.08%
73. Cc1ccc(CNC(=O)NC(C)CN2CCOCC2)s1 (centres undefined)  -6.15%
74. O=C(Nc1cnc2n1CCCC2)c1cccc(OCC(F)(F)F)c1  -6.16%
75. CC(=O)c1cccc(NC(=O)NCCOCC2CC2)c1  -6.67%
76. CCN(Cc1cn(C)nc1-c1ccc2c(c1)OCCO2)CC1CCCO1 (centres undefined)  -6.76%
77. CNc1cc(C)nc(N2CCC3(CC2)[C@H](O)C[C@@H]3O)n1  -6.92%
78. CC(C)N1c2sc(-c3ccccc3)nc2CC1C(=O)NC1CCCC1 (centres undefined)  -6.93%
79. CS(=O)(=O)NCc1ccc(C(=O)NCc2ccc3c(c2)CCC3)o1  -7.15%
80. CCOc1ccc(C(=O)N2CCCC(n3ccnc3C)C2)cc1OC (centres undefined)  -7.46%
81. O=C1OCCN1CCNC(=O)C1(N2CCCCC2)Cc2ccccc2C1  -7.56%
82. Cc1nc(C)n(C2CCCN(C(=O)CCCc3ccccn3)C2)n1 (centres undefined)  -7.71%
83. CC(=O)N1CCN(c2cc(-n3cccc3)ncn2)CC1  -7.94%
84. CC(=O)Nc1cccc(CNC(=O)N(C)Cc2ccccc2)c1  -8.01%
85. Fc1cccc(-c2nc(CN3CCn4c(nnc4C4CC4)C3)co2)c1  -8.24%
86. Cc1csc(N2CCCN(C(=O)c3c(C)noc3C)CC2)n1  -8.3%
87. Cc1ccccc1-n1cnnc1SCC(=O)NCC1CCCO1 (centres undefined)  -8.74%
88. CCc1nc2n(n1)CC(NCc1nc(C)ccc1O)CC2 (centres undefined)  -8.85%
89. O=C(c1cncnc1)N1C[C@@H]2CC[C@H](Oc3cccc(F)c3)[C@@H]2C1  -8.85%
90. COC(=O)C1CCN(C(=O)c2ccc(C)c(NS(C)(=O)=O)c2)CC1  -8.87%
91. COc1c(CNCc2ccc(N3CCCC3)nc2)c(C(C)C)nn1C  -9.28%
92. CCN1CCc2nc(N3CCOCC3)nc(NC(C)C)c2C1  -9.45%
93. CN(CCOc1ccc(F)cc1)S(=O)(=O)N1CCOCC1  -9.68%
94. O=C(NCc1cccc(F)c1)NC1CCCN(c2ncccn2)C1 (centres undefined)  -9.75%
95. N#CC1(C(=O)N2CCOC(c3ccc(F)cc3)C2)CCCCC1 (centres undefined)  -9.88%
96. OCc1cn(Cc2cccc(C(F)(F)F)c2)nn1  -9.88%
97. COc1ccc(OC)c(CN(Cc2ccco2)Cc2[nH]cnc2C)c1  -10.2%
98. CCn1c(=O)nc(N)c2c(-c3ccc(OC)cc3)csc21  -10.3%
99. CCC(=O)NC1CCCN(C(=O)Nc2cc(-c3ccccc3)on2)C1 (centres undefined)  -10.8%
100. O=C1NCCCCC1Sc1ccccc1F (centres undefined)  -11.2%
101. CCNC(=O)N1CCc2ccc(NC(=O)C(C)c3ccsc3)cc21 (centres undefined)  -11.3%
102. c1ccc(CN2CCc3c(COCC4CC4)cncc3C2)nc1  -11.4%
103. CCOc1ccc(S(=O)(=O)N(CCOC)Cc2ccoc2)cc1F  -11.6%
104. O=C(O)c1csc(S(=O)(=O)N2CCN(Cc3ccc(Cl)cc3)CC2)c1  -12.5%
105. CN1CCC(Oc2ccc(-n3ccnc3-c3ccncc3)cc2)CC1  -13.2%
106. CC(C)C(NC(=O)c1ccccc1F)C(=O)Nc1cnn(C)c1 (centres undefined)  -13.2%
107. CC(C)N(C)Cc1cnc2n1CCN(Cc1ccco1)C2  -14%
108. COc1ccc(N2CCN(CC(O)c3cc(C)ccc3C)CC2)cc1 (centres undefined)  -14.7%
109. COc1ccc(OC)c(C(=O)N(C)Cc2nnc3ccccn23)c1  -15.1%
110. CC(C)C[C@H](NC(=O)NC1CCS(=O)(=O)C1)C(=O)NCc1cccnc1 (some centres undefined)  -16%
111. O=C1NCC2(CCCN(C(=O)Nc3ccc4scnc4c3)CC2)O1 (centres undefined)  -16.7%
112. CN(C)C(=O)[C@H]1C[C@@H]2CN(S(=O)(=O)Cc3ccccc3)C[C@H]1O2  -17.1%
113. Cc1cc(C)c(S(=O)(=O)Nc2cccc3c2OCCO3)cc1C(=O)O  -27.2%
114. Cc1nc(-c2ccco2)ccc1C(=O)NCCN1CCN(C)CC1  -114%
